Measurements as given in article PMC4109671, “Cloning, Expression, Purification, and Characterization of Glutaredoxin from Antarctic Sea-Ice Bacterium Pseudoalteromonas sp. AN178” (BioMed Research International, 2014).

Test system: T1, rPsGrx
T1 construct: gene PsGrx; active site C12-P-F-C15 (abstract prints CPYC)
Assay: GSH-dependent HED reduction coupled to yeast glutathione reductase, NADPH consumption at […] nm; Lineweaver-Burk
Format: biochemical, Pseudoalteromonas sp. AN178
Conditions: HED 0.4 to 8 mM, 1 mM GSH fixed, yeast GR, apparent Km, standard assay at 25°C

OCCSSCCO [HED] gave a Km of 460 µM.
